ChEMBL document CHEMBL5053545, “Iterative Structure-Based Optimization of Short Peptides Targeting the Bacterial Sliding Clamp” (J Med Chem, 2021)
Calls of active or inactive are those of the source. The rule behind the calls is not given here. *1 amine or outer side, *2 acyl side, *3 side chain or, on linkers, in order; H or OH if unused. Where a SMILES comes first, the peptide text is derived from it. [ ]: non-standard residue; d: D form. The star is where a group is joined. Acryloyl(3-(3-pyridyl),E) = O=C(/C=C/c1cccnc1)*; Phe(3,4-Cl2) = N[C@@H](Cc1ccc(Cl)c(Cl)c1)C(=O)O; Phe(3,4-F2) = N[C@@H](Cc1ccc(F)c(F)c1)C(=O)O; Acetyl(1-naphthyl) = O=C(Cc1cccc2ccccc12)*; Oic = O=C(O)[C@@H]1C[C@@H]2CCCC[C@@H]2N1; Cinnamoyl(4-F) = O=C(/C=C/c1ccc(F)cc1)*; Hydrocinnamoyl = O=C(CCc1ccccc1)*; NH(4-MeO-phenyl) = COc1ccc(N*)cc1; X2 = O=C(CN(Cc1ccccn1)[*:1])[*:2]; X3 = CN(C)/C(=N\CC(=O)*)N1CCOCC1; NFurfurylGly = O=C(O)CNCc1ccco1; Cha = N[C@@H](CC1CCCCC1)C(=O)O; NMeD = CN[C@@H](CC(=O)O)C(=O)O; X5 = CN(C)C(=NCC(=O)*)N(C)C; X1 = O=C(/C=C/c1ccccc1)*; CO = O=C([*:1])[*:2]; Sar = CNCC(=O)O

How the values were obtained:
Escherichia coli [1] = test: Binding affinity to Escherichia coli sliding clamp assessed as association rate constant by ITC analysis
[2] = Binding affinity to Escherichia coli sliding clamp assessed as dissociation constant by ITC analysis
Escherichia coli [3] = test: Binding affinity to Escherichia coli sliding clamp assessed as dissociation rate constant by ITC analysis
Escherichia coli [4] = test: Binding affinity to Escherichia coli sliding clamp assessed as gibbs free energy change by ITC analysis
[5] = Inhibition of SC-dependent DNA replication in Escherichia coli using pU118 DNA as substrate preincubated for 10 mins followed by substrate addition and measured after 6 mins by PAGE electrophoresis
Escherichia coli [6] = test: Antimicrobial activity against Escherichia coli D22 at 128 ug/ml incubated 18 to 24 hrs by broth microdilution method; format: functional, organism-based; settings: dose 128.0 µg/ml, time 18-24 hrs

Row | K (Escherichia coli [1]) | K (Escherichia coli [3]) | deltaG (Escherichia coli [4]) [kcal/mol] | IC50 [5] [nM] | SMILES | Kd [2] [nM] | Activity (Escherichia coli [6])
1 | 4 10^4/M/s | 7.4 10^-3/s | -9.2 | 3200 | CC(=O)N[C@@H](CCC(N)=O)C(=O)N[C@@H](CC1CCCCC1)C(=O)N[C@@H](CC(=O)O)C(=O)N[C@@H](CC(C)C)C(=O)N[C@@H](Cc1ccccc1)C(=O)O (Ac-Q[Cha]DLF-OH) | 194 | 
2 | 6 10^4/M/s | 2.3 10^-3/s | -10.1 | 150 | CC(=O)N[C@@H](CCC(N)=O)C(=O)N[C@@H](CC1CCCCC1)C(=O)N[C@@H](CC(=O)O)C(=O)N[C@@H](CC(C)C)C(=O)N1[C@H](C(=O)N[C@@H](Cc2ccc(Cl)c(Cl)c2)C(=O)O)C[C@@H]2CCCC[C@@H]21 (Ac-Q[Cha]DL[Oic][Phe(3,4-Cl2)]-OH) | 39 | inactive
3 | 4 10^4/M/s | 2.1 10^-2/s | -8.5 |  | CC(=O)N[C@@H](CCC(N)=O)C(=O)N[C@@H](CC1CCCCC1)C(=O)N[C@@H](CC(=O)O)C(=O)N[C@@H](CC(C)C)C(=O)N(C)CC(=O)N[C@@H](CC(C)C)C(=O)O (Ac-Q[Cha]DL[Sar]L-OH) | 583 | inactive
4 | 4.8 10^4/M/s | 8.6 10^-3/s | -9.2 |  | CC(C)C[C@H](NC(=O)[C@H](CC(=O)O)NC(=O)[C@H](CC1CCCCC1)NC(=O)[C@H](CCC(N)=O)NC(=O)CNCc1ccco1)C(=O)N[C@@H](Cc1ccccc1)C(=O)O (H-[NFurfurylGly]Q[Cha]DLF-OH) | 171 | 
5 | 3.4 10^4/M/s | 5.7 10^-3/s | -9.2 |  | CC(C)C[C@H](NC(=O)[C@H](CC(=O)O)NC(=O)[C@H](CC1CCCCC1)NC(=O)[C@H](CCC(N)=O)NC(=O)CNCc1ccccn1)C(=O)N[C@@H](Cc1ccccc1)C(=O)O (H-[X2]Q[Cha]DLF-OH) | 172 | 
6 | 5.5 10^4/M/s | 6.7 10^-3/s | -9.1 |  | CC(C)C[C@H](NC(=O)[C@H](CC(=O)O)NC(=O)[C@H](CC1CCCCC1)NC(=O)[C@H](CCC(N)=O)NC(=O)CCc1ccccc1)C(=O)N[C@@H](Cc1ccccc1)C(=O)O (Hydrocinnamoyl-Q[Cha]DLF-OH) | 123 | 
7 | 4.6 10^4/M/s | 6.5 10^-3/s | -9.4 |  | CC(C)C[C@H](NC(=O)[C@H](CC(=O)O)NC(=O)[C@H](CC1CCCCC1)NC(=O)[C@H](CCC(N)=O)NC(=O)/C=C/c1ccccc1)C(=O)N[C@@H](Cc1ccccc1)C(=O)O (X1-Q[Cha]DLF-OH) | 129 | inactive
8 | 6 10^4/M/s | 8 10^-3/s | -9.4 |  | CC(C)C[C@H](NC(=O)[C@@H]1CCCN1C(=O)[C@H](CC(C)C)NC(=O)[C@H](CC(=O)O)NC(=O)[C@H](CC1CCCCC1)NC(=O)[C@H](CCC(N)=O)NC(=O)/C=C/c1ccccc1)C(=O)O (X1-Q[Cha]DLPL-OH) | 132 | 
9 | 3.4 10^4/M/s | 1 10^-2/s | -9 |  | CC(C)C[C@H](NC(=O)[C@H](CC(=O)O)NC(=O)[C@H](CC1CCCCC1)NC(=O)[C@H](CCC(N)=O)NC(=O)C/N=C(\N(C)C)N1CCOCC1)C(=O)N[C@@H](Cc1ccccc1)C(=O)O (X3-Q[Cha]DLF-OH) | 276 | 
10 | 3.4 10^4/M/s | 1.1 10^-2/s | -8.7 |  | CC(C)C[C@H](NC(=O)[C@H](CC(=O)O)NC(=O)[C@H](CC1CCCCC1)NC(=O)[C@H](CCC(N)=O)NC(=O)CN=C(N(C)C)N(C)C)C(=O)N[C@@H](Cc1ccccc1)C(=O)O (X5-Q[Cha]DLF-OH) | 353 | 
11 | 6.5 10^4/M/s | 5.7 10^-3/s | -9.6 |  | CC(C)C[C@H](NC(=O)[C@H](CC(=O)O)NC(=O)[C@H](CC1CCCCC1)NC(=O)[C@H](CCC(N)=O)NC(=O)Cc1cccc2ccccc12)C(=O)N[C@@H](Cc1ccccc1)C(=O)O ({Acetyl(1-naphthyl)}-Q[Cha]DLF-OH) | 89 | 
12 | 4.6 10^4/M/s | 7.4 10^-3/s | -9.3 |  | CC(C)C[C@H](NC(=O)[C@H](CC(=O)O)NC(=O)[C@H](CC1CCCCC1)NC(=O)[C@H](CCC(N)=O)NC(=O)/C=C/c1cccnc1)C(=O)N[C@@H](Cc1ccccc1)C(=O)O ({Acryloyl(3-(3-pyridyl),E)}-Q[Cha]DLF-OH) | 156 | inactive
13 | 1.4 10^5/M/s | 5.2 10^-3/s | -10.2 |  | CC(C)C[C@H](NC(=O)[C@H](CC(=O)O)N(C)C(=O)[C@H](CC1CCCCC1)NC(=O)[C@H](CCC(N)=O)NC(=O)/C=C/c1cccnc1)C(=O)N1CCC[C@H]1C(=O)N[C@@H](Cc1ccccc1)C(=O)O ({Acryloyl(3-(3-pyridyl),E)}-Q[Cha][NMeD]LPF-OH) | 35 | inactive
14 | 6.3 10^4/M/s | 1.1 10^-2/s | -9.2 |  | CC(C)C[C@H](NC(=O)[C@@H]1CCCN1C(=O)[C@H](CC(C)C)NC(=O)[C@H](CC(=O)O)N(C)C(=O)[C@H](CC1CCCCC1)NC(=O)[C@H](CCC(N)=O)NC(=O)/C=C/c1cccnc1)C(=O)O ({Acryloyl(3-(3-pyridyl),E)}-Q[Cha][NMeD]LPL-OH) | 177 | 
15 | 4.7 10^4/M/s | 5.5 10^-3/s | -9.5 |  | CC(C)C[C@H](NC(=O)[C@H](CC(=O)O)N(C)C(=O)[C@H](CC1CCCCC1)NC(=O)[C@H](CCC(N)=O)NC(=O)/C=C/c1cccnc1)C(=O)N1[C@H](C(=O)N[C@@H](Cc2ccccc2)C(=O)O)C[C@@H]2CCCC[C@@H]21 ({Acryloyl(3-(3-pyridyl),E)}-Q[Cha][NMeD]L[Oic]F-OH) | 118 | 
16 | 1.1 10^5/M/s | 5.5 10^-3/s | -10.1 |  | CC(C)C[C@H](NC(=O)[C@H](CC(=O)O)N(C)C(=O)[C@H](CC1CCCCC1)NC(=O)[C@H](CCC(N)=O)NC(=O)/C=C/c1cccnc1)C(=O)N[C@@H](Cc1ccc(Cl)c(Cl)c1)C(=O)O ({Acryloyl(3-(3-pyridyl),E)}-Q[Cha][NMeD]L[Phe(3,4-Cl2)]-OH) | 46 | inactive
17 | 4.6 10^4/M/s | 6.3 10^-3/s | -9.3 |  | CC(C)C[C@H](NC(=O)[C@H](CC(=O)O)NC(=O)[C@H](CC1CCCCC1)NC(=O)[C@H](CCC(N)=O)NC(=O)/C=C/c1ccc(F)cc1)C(=O)N[C@@H](Cc1ccccc1)C(=O)O ({Cinnamoyl(4-F)}-Q[Cha]DLF-OH) | 144 | 
18 | 5.1 10^4/M/s | 5.7 10^-3/s | -9.6 |  | CC(C)C[C@H](NC(=O)[C@H](CC(=O)O)N(C)C(=O)[C@H](CC1CCCCC1)NC(=O)[C@H](CCC(N)=O)NC(=O)/C=C/c1ccc(F)cc1)C(=O)N[C@@H](Cc1ccc(F)c(F)c1)C(=O)O ({Cinnamoyl(4-F)}-Q[Cha][NMeD]L[Phe(3,4-F2)]-OH) | 99 | 
19 | 4 10^4/M/s | 2.8 10^-3/s | -9.8 |  | COc1ccc(NC(=O)N[C@@H](CCC(N)=O)C(=O)N[C@@H](CC2CCCCC2)C(=O)N[C@@H](CC(=O)O)C(=O)N[C@@H](CC(C)C)C(=O)N[C@@H](Cc2ccccc2)C(=O)O)cc1 ({NH(4-MeO-phenyl)-CO}-Q[Cha]DLF-OH) | 73 | 
20 | 4.2 10^4/M/s | 1.1 10^-3/s | -9 |  | COc1ccc(NC(=O)N[C@@H](CCC(N)=O)C(=O)N[C@@H](CC2CCCCC2)C(=O)N(C)[C@@H](CC(=O)O)C(=O)N[C@@H](CC(C)C)C(=O)N[C@@H](Cc2ccc(Cl)c(Cl)c2)C(=O)O)cc1 ({NH(4-MeO-phenyl)-CO}-Q[Cha][NMeD]L[Phe(3,4-Cl2)]-OH) | 266 | 
